Among the data in patent US9174980B2, “Heterocyclic compounds as inhibitors of leukotriene production” (Boehringer Ingelheim International GmbH, priority 2012, dated 2015) are IC50 values, retold here.

Experiment [1] relates to synthesis of LTB4 in human whole blood. Briefly: Human whole blood assay (calcimycin-stimulated LTB4 synthesis). The experiment is classed as cell-based. The conditions noted are these: Homo sapiens; read-out: Human Whole Blood LTB4 Assay for FLAP (IC50 nM). The procedure:
Compounds are additionally tested in a human whole blood assay to determine their ability to inhibit the synthesis of LTB4 in a cellular system. Compounds are combined with heparinized human whole blood and incubated for 15 minutes at 37° C. Calcimycin (20 μM final, prepared in phosphate-buffered saline, pH 7.4) is then added and the mixture is incubated for another 30 minutes at 37° C. The samples are centrifuged for 5 min at low speed (1500×g) and the plasma layer is removed. Plasma LTB4 concentrations are then measured using an antibody-based homogenous time-resolved fluorescence method (CisBio, Bedford, Mass.).

For experiment [2], the target named is T1, recombinant human FLAP protein (Homo sapiens, UniProt P20292).
T1 construct: made in house; host or cells: Sf9 insect cells (membrane fraction, 100,000 x g pellet)
T1 sequence (P20292 1-161): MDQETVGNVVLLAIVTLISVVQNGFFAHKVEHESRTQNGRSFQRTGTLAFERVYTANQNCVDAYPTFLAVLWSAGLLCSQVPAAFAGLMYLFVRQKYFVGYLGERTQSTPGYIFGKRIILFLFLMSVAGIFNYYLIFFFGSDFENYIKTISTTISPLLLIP
Briefly: FLAP binding assay (Scintillation Proximity Assay, displacement of [125I]L-691,831). Particulars: read-out: Human FLAP SPA Binding (IC50 nM). The procedure:
Compounds are assessed for the ability to bind to FLAP in a binding assay that measures compound-specific displacement of an iodinated (^125I) FLAP inhibitor via a Scintillation Proximity Assay format (adapted from S. Charleson et al., Mol. Pharmacol., 1992, 41, 873-879).
Cell pellets produced from sf9 insect cells expressing recombinant human FLAP protein are resuspended in buffer A [15 mM Tris-HCl (pH 7.5), 2 mM MgCl2, 0.3 mM EDTA, 1 mM PMSF]. The cells are lysed with a Dounce homogenizer and the material is centrifuged at 10,000×g for 10 minutes. The supernatant is then collected and centrifuged at 100,000×g for 60 minutes. To prepare membrane protein for an assay, an aliquot of the 100,000×g pellet is resuspended in 1 ml of buffer A, Dounce homogenized, and finally subjected to polytron mixing (30 seconds). Membrane protein (25 μl, 5 μg) is mixed with WGA SPA beads (Amersham) and stirred for 1 h. To an assay plate (Perkin Elmer FlexiPlate) is added 25 μl of test compound prepared in Binding buffer [100 mM Tris (pH 7.5), 140 mM NaCl, 5% glycerol, 2 mM EDTA, 0.5 mM TCEP, 0.05% Tween 20], 25 μl of [^125I]L-691,831 (an iodinated analog of MK-591, Charleson et al. Mol. Pharmacol., 41, 873-879, 1992) and finally 50 μl of the bead/protein mixture. (final concentrations: beads, 200 μg/well; protein, 5 μg/well; [^125I] probe, 0.08 nM/well (17 nCi/well). The plates are shaken for 2 h before reading on a Microbeta plate reader. Non-specific binding is determined by the addition of 10 μM cold L-691,831 compound.

A word on the IC50: it is the concentration that gives 50% inhibition. As to `NC(=O)Cn1cc(C2(c3ccc(-c4cnc(N)nc4)cc3)CCC2)c2ccccc21` [Example 147], the IC50 in experiment [1] was > 5000 nM; in experiment [2], 7.9 nM.

With `Cc1ccc(-c2nnc(C3(c4ccc(-c5cnc(N)nc5)cc4)CCC3)s2)cn1` [Example 131, 5-(4-{1-[5-(6-methylpyridin-3-yl)-1,3,4-thiadiazol-2-yl]cyclobutyl}phenyl)pyrimidin-2-amine], the IC50 in experiment [1] is 920 nM; in experiment [2] it was 5.5 nM.

On to `CN(C)CCn1cc(-c2cc([C@@](C)(c3ccc(-c4cnc(N)nc4)cc3)C3CC3)no2)cn1` [Example 26, 5-{4-[(1R)-1-cyclopropyl-1-(5-{1-[2-(dimethylamino)ethyl]-1H-pyrazol-4-yl}-1,2-oxazol-3-yl)ethyl]phenyl}pyrimidin-2-amine], for which the IC50 was 39 nM in experiment [1] and 4.6 nM in experiment [2].

Regarding `CC(C)C(C)(c1ccc(-c2cnc(N)nc2)cc1)c1cn(Cc2ccc(Cl)cc2)c2ccccc12` (centres unmarked) [Example 29, 5-(4-{2-[1-(4-chlorobenzyl)-1H-indol-3-yl]-3-methylbutan-2-yl}phenyl)pyrimidin-2-amine], the IC50 was found to be 2700 nM in experiment [1] and 5.1 nM in experiment [2].

On to `COc1cccc2c1c(C(C)(c1ccc(-c3cnc(N)nc3)cc1)C(C)C)cn2Cc1ccccn1` (centres unmarked) [Example 50, 5-(4-{2-[4-methoxy-1-(pyridin-2-ylmethyl)-1H-indol-3-yl]-3-methylbutan-2-yl}phenyl)pyrimidin-2-amine], for which the IC50 is > 5000 nM in experiment [1] and 260 nM in experiment [2].

With `Cc1[nH]c2ccccc2c1C(C)(c1ccc(-c2cnc(N)nc2)cc1)C(C)C` (centres unmarked) [Example 86, 5-{4-[3-methyl-2-(2-methyl-1H-indol-3-yl)butan-2-yl]phenyl}pyrimidin-2-amine], the half-inhibitory concentration (IC50) was determined as 230 nM in experiment [1] and 1.4 nM in experiment [2].

As for `Cn1cc(-c2cnc(C(C)(c3ccc(-c4cnc(N)nc4)cc3)C3CC3)s2)cn1` (centres unmarked) [Example 173, 5-(4-{1-cyclopropyl-1-[5-(1-methyl-1H-pyrazol-4-yl)-1,3-thiazol-2-yl]ethyl}phenyl)pyrimidin-2-amine], the results for the IC50 in experiment [1] and in experiment [2] were 89 nM and 7.7 nM, respectively.

For the compound `Nc1ncc(-c2ccc(C3(c4cn(Cc5ccccn5)c5ccccc45)CCOCC3)cc2)cn1` [Example 35, 5-(4-{4-[1-(pyridin-2-ylmethyl)-1H-indol-3-yl]tetrahydro-2H-pyran-4-yl}phenyl)pyrimidin-2-amine], the half-inhibitory concentration (IC50) in experiment [1] is > 5000 nM; in experiment [2] it was 150 nM.

For `Nc1ncc(-c2ccc(C3(c4nnc(-c5cccnc5)[nH]4)CCC3)cc2)cn1` [Example 102, 5-(4-{1-[5-(pyridin-3-yl)-4H-1,2,4-triazol-3-yl]cyclobutyl}phenyl)pyrimidin-2-amine], the half-maximal inhibitory concentration (IC50) amounted to 900 nM in experiment [1] and 3.7 nM in experiment [2].

As for `CN(C)CCn1cc(-c2cnc(C(C)(c3ccc(-c4cnc(N)nc4)cc3)C3CC3)s2)cn1` (centres unmarked) [Example 172, 5-{4-[1-cyclopropyl-1-(5-{1-[2-(dimethylamino)ethyl]-1H-pyrazol-4-yl}-1,3-thiazol-2-yl)ethyl]phenyl}pyrimidin-2-amine], the half-maximal inhibitory concentration (IC50) is 73 nM in experiment [1] and 8.2 nM in experiment [2].

`Cc1ccc(-c2nnc(C3(c4ccc(-c5cnc(N)nc5)cc4)CCC3)[nH]2)cn1` [Example 129, 5-(4-{1-[5-(6-methylpyridin-3-yl)-4H-1,2,4-triazol-3-yl]cyclobutyl}phenyl)pyrimidin-2-amine]: the half-inhibitory concentration (IC50) was 4000 nM in experiment [1] and 7.6 nM in experiment [2].

For the compound `CC(C)C(C)(c1ccc(OCc2ccccn2)cc1)c1cn(C)c2cc(C(N)=O)ccc12` (centres unmarked) [Example 38, 3-[1,2-dimethyl-1-[4-(2-pyridylmethoxy)phenyl]propyl]-1-methyl-indole-6-carboxamide], the half-inhibitory concentration (IC50) in experiment [1] was determined as 240 nM; in experiment [2], 1.4 nM.

With `CN(C)C(=O)Cn1cc(-c2cc(C(C)(c3ccc(-c4cnc(N)nc4)cc3)C3CC3)no2)cn1` (centres unmarked) [Example 183, 2-[4-(3-{1-[4-(2-aminopyrimidin-5-yl)phenyl]-1-cyclopropylethyl}-1,2-oxazol-5-yl)-1H-pyrazol-1-yl]-N,N-dimethylacetamide], the concentration for half-maximal inhibition (IC50) turned out to be 200 nM in experiment [1] and 9 nM in experiment [2].

As for `Nc1ncc(-c2ccc(C3(c4nc5ccccc5o4)CCC3)cn2)cn1` [Example 138, 5-{5-[1-(1,3-benzoxazol-2-yl)cyclobutyl]pyridin-2-yl}pyrimidin-2-amine], the IC50 was determined as 990 nM in experiment [1] and 18 nM in experiment [2].

For `CC(C)C(C)(c1ccc(-c2cnc(N)nc2)cc1)c1nc2ccccc2o1` (centres unmarked) [Example 112, 5-{4-[2-(1,3-benzoxazol-2-yl)-3-methylbutan-2-yl]phenyl}pyrimidin-2-amine], the IC50 is 570 nM in experiment [1] and 3.2 nM in experiment [2].

With `CN(CCS(C)(=O)=O)C(=O)c1cccc2c(C3(c4ccc(-c5cnc(N)nc5)cc4)CCC3)c[nH]c12` [Example 2, 3-{1-[4-(2-aminopyrimidin-5-yl)phenyl]cyclobutyl}-N-methyl-N-[2-(methylsulfonyl)ethyl]-1H-indole-7-carboxamide], the IC50 in experiment [1] was 490 nM; in experiment [2], 1.9 nM.

`CC(C)C(C)(c1ccc(-c2cnc(N)nc2)nc1)c1nc(-c2cnn(C)c2)no1` (centres unmarked) [Example 22, 5-(5-{3-methyl-2-[3-(1-methyl-1H-pyrazol-4-yl)-1,2,4-oxadiazol-5-yl]butan-2-yl}pyridin-2-yl)pyrimidin-2-amine]: the results for the IC50 in experiment [1] and in experiment [2] were 710 nM and 44 nM, respectively.

Take `Nc1ncc(-c2ccc(C3(c4c[nH]c5cc(C(=O)N6CCC(O)C6)ccc45)CCC3)cc2)cn1` (centres unmarked) [Example 106, (3-{1-[4-(2-aminopyrimidin-5-yl)phenyl]cyclobutyl}-1H-indol-6-yl)(3-hydroxypyrrolidin-1-yl)methanone]: the half-inhibitory concentration (IC50) is 4100 nM in experiment [1] and 0.91 nM in experiment [2].

Regarding `Cn1cc(-c2cnc(C3(c4ccc(-c5cnc(N)nc5)cc4)CCC3)s2)cn1` [Example 190, 5-(4-{1-[5-(1-methyl-1H-pyrazol-4-yl)-1,3-thiazol-2-yl]cyclobutyl}phenyl)pyrimidin-2-amine], the results for the half-maximal inhibitory concentration (IC50) in experiment [1] and in experiment [2] were 80 nM and 4.9 nM, respectively.

As for `Nc1ncc(-c2ccc(C3(c4nc5ccccc5o4)CCC3)cc2)cn1` [Example 127, 5-{4-[1-(1,3-benzoxazol-2-yl)cyclobutyl]phenyl}pyrimidin-2-amine], the concentration for half-maximal inhibition (IC50) turned out to be 1900 nM in experiment [1] and 7.2 nM in experiment [2].

Turning to `CC(C)C(C)(c1ccc(-c2cnc(N)nc2)cc1)c1c[nH]c2cc(C(=O)N3CCC(O)C3)ccc12` (centres unmarked) [Example 80, (3-{2-[4-(2-aminopyrimidin-5-yl)phenyl]-3-methylbutan-2-yl}-1H-indol-6-yl)(3-hydroxypyrrolidin-1-yl)methanone], the concentration for half-maximal inhibition (IC50) is > 5000 nM in experiment [1] and 1.6 nM in experiment [2].

Consider `Cc1cc(CN(C)C(=O)c2cccc3c(C4(c5ccc(-c6cnc(N)nc6)cc5)CCC4)c[nH]c23)no1` [Example 17, 3-{1-[4-(2-aminopyrimidin-5-yl)phenyl]cyclobutyl}-N-methyl-N-[(5-methyl-1,2-oxazol-3-yl)methyl]-1H-indole-7-carboxamide], for which the figures for the IC50 in experiment [1] and in experiment [2] were 250 nM and 3.4 nM, respectively.

For `Cn1cc(C(c2ccc(-c3cnc(N)nc3)cc2)C(C)(C)C)c2ccccc21` (centres unmarked) [Example 154, 5-{4-[2,2-dimethyl-1-(1-methyl-1H-indol-3-yl)propyl]phenyl}pyrimidin-2-amine], the IC50 in experiment [1] is > 5000 nM; in experiment [2], 22 nM.

As to `Cn1cc(-c2cc([C@](C)(c3ccc(-c4cnc(N)nc4)nc3)C3CC3)no2)cn1` [Example 201, 5-(5-{(S)-1-Cyclopropyl-1-[5-(1-methyl-1H-pyrazol-4-yl)-isoxazol-3-yl]-ethyl}-pyridin-2-yl)-pyrimidin-2-ylamine], the values for the IC50 in experiment [1] and in experiment [2] were 3500 nM and > 2000 nM, respectively.

Take `CC(C)C(C)(c1ccc(-c2cnc(N)nc2)cc1)c1c[nH]c2cc(-c3nnn[nH]3)ccc12` (centres unmarked) [Example 68, 5-(4-[3-methyl-2-[6-(1H-tetrazol-5-yl)-1H-indol-3-yl]butan-2-yl}phenyl)pyrimidin-2-amine]: the results for the 50% inhibitory concentration (IC50) in experiment [1] and in experiment [2] were > 5000 nM and 1 nM, respectively.
